Tests used:
[1] = system: spontaneous recurrent hippocampal paroxysmal discharges (HPD); assay: Mesial temporal lobe epilepsy (mTLE) mouse model; assay type: in vivo; details: 125 mg/kg; mice lesioned with intrahippocampal kainic acid
Description: The MTLE mouse model recapitulates many of the characteristics observed in human patients with temporal lobe epilepsy (TLE). The MTLE mouse is characterized by an initial neurotoxic event, a unilateral intrahippocampal injection of kainic acid (KA) into the dorsal hippocampus, which induces non-convulsive SE lasting several hours. This initial event is followed by a latent phase. Two to three weeks after KA injection, spontaneous recurrent hippocampal paroxysmal discharges (HPD) are only recorded in the epileptic hippocampus and remain stable and stereotyped for the whole life of the animal. These HPDs occur spontaneously about 30-60 times per hour when the animals are in a state of quiet wakefulness, generally last 15-20 sec and are associated with behavioral arrest and/or mild motor automatisms. […] Data are analyzed for the period of 10 minutes before and 10 minutes after peak time of effect of the investigational compound, as determined from the 6 Hz 44 mA seizure test. […] Data are presented as the raw number of HPDs during the analyzed 20 min period (10 minutes before and 10 minutes after peak time of effect of compound) for each MTLE mouse, group mean number of HPDs, and effect on suppression as represented by percent of baseline HPD values.

mechanical allodynia = assay: Spinal nerve injury (SNI) model, Von Frey test; assay type: in vivo, rat; details: 60 mg/kg i.p.
Description: The SNI model of neuropathic pain was developed in rats using the procedure described by Decostered and Woolf, Pain 2000, 87: 149-158. Under isoflurane anesthesia, the skin on the lateral surface of the thigh was incised and a section was made directly through the biceps femoris muscle exposing the sciatic nerve and its three terminal branches: the sural, common peroneal and tibial nerves. The common peroneal and the tibial nerves were tight-ligated with 6-0 suture and sectioned distal to the ligation, removing 2-4 mm of the distal nerve stump. Extreme care was taken to avoid any contact with or stretching of the intact sural nerve. Following surgery, hemostasis was confirmed and the muscles were sutured in layers using 4-0 suture and the skin was closed with 4-0 suture and metal clips. Male, Sprague-Dawley rats were used. Testing of compounds was done 21 days post-operatively. After initial basal readings were taken, the test compound or vehicle was administered. The readings were taken again 30, 60 and 180 min after the compound/vehicle administration. Both the control (uninjured) and the SNI paw were tested. The presence of mechanical allodynia was assessed using the Dynamic Plantar Aesthesiometer (Ugo Basile, Italy) which is a modified version of the Von Frey Hair test. […] A single reading was taken per time point. […]

## C[C@@H](Oc1cc(Cl)cc(C(F)(F)F)c1)C(N)=O [I(D), (2R)-2-[3-chloro-5-(trifluoromethyl)-phenoxy]propanamide]
[1]
  effect against spontaneous recurrent hippocampal paroxysmal discharges (HPD): effective

## NC(=O)COc1cc(C(F)(F)F)cc(C(F)(F)F)c1 [I(F), 2-[3,5 bis(trifluoromethyl)-phenoxy]acetamide;]
Mechanical allodynia
  mechanical allodynia in the denervated paw, Von Frey test: effective
